Calls of active or inactive are those of the source.

The term inhibition denotes the share of the control response that was lost under treatment. The term Ki denotes the dissociation constant of the complex between target and ligand, obtained from inhibition or displacement. Read a low Ki as a stronger hold on the target. As a reminder, the clearance is the volume of plasma or blood freed of the substance per unit of time. As a reminder, the AUC(0-inf) is the area under the concentration-time curve extrapolated to infinity. Low readings indicate low exposure, high ones high exposure. The IC50 is the point on the concentration scale where inhibition reaches its midpoint. For orientation: Tmax means the time at which the peak concentration occurs. In general, half-life refers to the time needed for the level to fall by half in the phase considered. A low value points to fast loss. The term bioavailability denotes dose-corrected exposure relative to a reference, in per cent. A higher bioavailability goes with good availability. The Cmax is the peak of the concentration-time curve.

The subject of data set [1] is Rattus norvegicus.
Data set [2] deals with T1, Sodium-dependent serotonin transporter (Homo sapiens, UniProt P31645). The data set can be described thus: Inhibition of human SERT transfected in HEK293 cells assessed as inhibition of [3H]serotonin uptake incubated 30 mins prior to substrate addition measured after 1 minute 50 secs. The data set is classed as cell-based.
Target sequence in this assay (P31645 whole entry, looked up): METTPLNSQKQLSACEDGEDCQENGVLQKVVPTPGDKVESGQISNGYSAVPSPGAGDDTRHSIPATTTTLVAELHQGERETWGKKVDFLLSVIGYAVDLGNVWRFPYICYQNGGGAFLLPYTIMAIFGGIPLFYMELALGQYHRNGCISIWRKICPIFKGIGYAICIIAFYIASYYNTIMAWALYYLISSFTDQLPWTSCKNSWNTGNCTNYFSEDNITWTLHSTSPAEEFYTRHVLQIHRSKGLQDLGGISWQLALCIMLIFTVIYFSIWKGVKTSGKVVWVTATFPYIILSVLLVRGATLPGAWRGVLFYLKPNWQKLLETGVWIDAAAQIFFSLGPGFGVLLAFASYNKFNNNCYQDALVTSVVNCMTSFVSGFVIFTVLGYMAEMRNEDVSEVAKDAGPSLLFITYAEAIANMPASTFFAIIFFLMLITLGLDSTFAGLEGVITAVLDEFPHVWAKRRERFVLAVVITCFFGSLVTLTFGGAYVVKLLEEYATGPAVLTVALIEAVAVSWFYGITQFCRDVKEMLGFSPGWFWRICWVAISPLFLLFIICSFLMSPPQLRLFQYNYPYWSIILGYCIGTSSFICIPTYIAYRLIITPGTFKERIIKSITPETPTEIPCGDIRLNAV
Data set [3] concerns Rattus norvegicus. Conditions: Sprague-Dawley.
Description: (§1) In vivo SERT receptor occupancy in po dosed Sprague-Dawley rat brain cortex after 2 hrs in presence of DASB
Data set [4] has as its target Sodium-dependent serotonin transporter (Rattus norvegicus, UniProt P31652).
Description: Displacement of [3H]-citalopram from Sprague-Dawley rat brain SERT after 1 hr
Data set [5] deals with T1, Sodium-dependent serotonin transporter. Nature of the data set: biochemical. The data set is classed as cell-based, HEK293.
Target sequence in this assay (P31645 whole entry): as the sequence (P31645 whole entry, looked up) above
Description: Displacement of [3H]citalopram from human SERT transfected in HEK293 cells after 3 hrs by Wallac counting analysis
In data set [6] the target is Sodium-dependent dopamine transporter (Homo sapiens, UniProt Q01959). Nature of the data set: biochemical.
Chain of Sodium-dependent dopamine transporter (Q01959 whole entry): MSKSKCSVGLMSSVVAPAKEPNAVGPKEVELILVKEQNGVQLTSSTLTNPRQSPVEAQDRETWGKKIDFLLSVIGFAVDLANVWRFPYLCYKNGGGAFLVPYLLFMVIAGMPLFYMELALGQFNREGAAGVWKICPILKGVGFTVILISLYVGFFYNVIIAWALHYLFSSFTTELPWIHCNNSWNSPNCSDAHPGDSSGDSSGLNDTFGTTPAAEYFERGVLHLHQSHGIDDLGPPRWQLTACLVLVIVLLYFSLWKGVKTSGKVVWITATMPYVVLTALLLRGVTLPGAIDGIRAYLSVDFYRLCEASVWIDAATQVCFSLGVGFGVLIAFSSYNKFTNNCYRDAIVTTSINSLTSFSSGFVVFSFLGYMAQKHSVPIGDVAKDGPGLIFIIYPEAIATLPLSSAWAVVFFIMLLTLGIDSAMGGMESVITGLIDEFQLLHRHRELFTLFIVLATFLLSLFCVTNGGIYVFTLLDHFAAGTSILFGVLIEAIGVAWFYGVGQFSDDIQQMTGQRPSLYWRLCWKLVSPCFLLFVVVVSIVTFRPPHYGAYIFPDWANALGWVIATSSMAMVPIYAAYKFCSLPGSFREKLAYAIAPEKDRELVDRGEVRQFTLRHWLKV
Description: Displacement of [3H]WIN35428 from human DAT transfected in HEK293 cells after 3 hrs by Wallac counting analysis
The species entered for data set [7] is Rattus norvegicus. The data set can be described thus: animal or person. Conditions: Sprague-Dawley, po, 2 h.
Description: as §1
A short description of data set [8]: Clearance in dog at 1 mg/kg, iv. The data set is classed as ADME, organism-based, Canis lupus familiaris. Also noted: dose 1 mg/kg, route intravenous. Conditions: in vivo.
The nature of data set [9]: Clearance in rat at 1 mg/kg, iv. The data set is classed as ADME, organism-based. Also noted: dose 1 mg/kg, route intravenous. Conditions: in vivo.
Data set [10] in a line: Volume of distribution at steady state in rat at 1 mg/kg, iv. The data set is classed as ADME, organism-based. Also noted: dose 1 mg/kg, route intravenous. Conditions: in vivo, read-out: Vdss.
Data set [11] is described as follows: Metabolic stability in rat liver microsomes after 30 mins by LC-ESI/MS analysis. It counts as ADME, Microsome. To be noted: read-out: Stability. Background: Liver microsomes are a subcellular fraction often used to study metabolism.
Data set [12] can be described thus: AUC (0 to infinity) in dog at 1 mg/kg, po. Also on record: time infinity, dose 1 mg/kg, route oral. To be noted: plasma. It counts as ADME, organism-based, Canis lupus familiaris.
A further data set has as its system Brain. Nature of the data set: Drug uptake in Sprague-Dawley rat brain at 10 mg/kg, po. The data set is classed as ADME, organism-based. Conditions: in vivo, read-out: Drug uptake. Also noted: dose 10 mg/kg, route oral.
The nature of data set [13]: Metabolic stability in human liver microsomes after 30 mins by LC-ESI/MS analysis. Conditions: read-out: Stability. The data set is classed as ADME, Microsome.
Data set [14] can be described thus: Tmax in rat at 1 mg/kg, po. The data set is classed as ADME, organism-based. Also on record: dose 1 mg/kg, route oral. Conditions: in vivo.
Data set [15] can be described thus: Volume of distribution at steady state in dog at 1 mg/kg, iv. To be noted: in vivo, read-out: Vdss. Also noted: dose 1 mg/kg, route intravenous. It counts as ADME, organism-based, Canis lupus familiaris.
A further data set deals with CYP2C9 (Homo sapiens, UniProt P11712). The data set can be described thus: Inhibition of CYP2C9 (unknown origin) at 10 uM. The data set is classed as ADME.
Chain of CYP2C9 (P11712 whole entry): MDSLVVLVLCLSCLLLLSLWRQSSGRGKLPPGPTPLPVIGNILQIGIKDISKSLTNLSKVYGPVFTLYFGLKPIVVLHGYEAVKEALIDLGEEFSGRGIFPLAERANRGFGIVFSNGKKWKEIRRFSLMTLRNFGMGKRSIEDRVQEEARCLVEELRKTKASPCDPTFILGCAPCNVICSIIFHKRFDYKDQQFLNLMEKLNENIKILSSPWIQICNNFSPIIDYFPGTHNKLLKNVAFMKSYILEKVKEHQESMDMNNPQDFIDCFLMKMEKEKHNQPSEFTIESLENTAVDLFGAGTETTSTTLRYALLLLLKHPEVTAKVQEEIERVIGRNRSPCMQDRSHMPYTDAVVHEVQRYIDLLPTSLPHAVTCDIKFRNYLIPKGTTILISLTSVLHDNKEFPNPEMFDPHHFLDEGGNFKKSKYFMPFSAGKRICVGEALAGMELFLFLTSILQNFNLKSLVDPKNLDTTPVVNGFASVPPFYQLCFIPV
Data set [16] is described as follows: Tmax in dog at 1 mg/kg, po. Also on record: dose 1 mg/kg, route oral. The data set is classed as ADME, organism-based, Canis lupus familiaris. Conditions: in vivo.
For data set [17], the system named is Rattus norvegicus. Nature of the data set: Neurotoxicity in Sprague-Dawley rat at 100 mg/kg, po by rotorod test. It counts as toxicity, organism-based. Also noted: dose 100 mg/kg, route oral. Conditions: in vivo. (In general: In the rotarod test animals must keep their balance on a rotating rod.)
Another data set deals with Cytochrome P450 2D6 (Homo sapiens, UniProt P10635). The data set can be described thus: Inhibition of CYP2D6 (unknown origin). The data set is classed as ADME.
Chain of Cytochrome P450 2D6 (P10635 whole entry): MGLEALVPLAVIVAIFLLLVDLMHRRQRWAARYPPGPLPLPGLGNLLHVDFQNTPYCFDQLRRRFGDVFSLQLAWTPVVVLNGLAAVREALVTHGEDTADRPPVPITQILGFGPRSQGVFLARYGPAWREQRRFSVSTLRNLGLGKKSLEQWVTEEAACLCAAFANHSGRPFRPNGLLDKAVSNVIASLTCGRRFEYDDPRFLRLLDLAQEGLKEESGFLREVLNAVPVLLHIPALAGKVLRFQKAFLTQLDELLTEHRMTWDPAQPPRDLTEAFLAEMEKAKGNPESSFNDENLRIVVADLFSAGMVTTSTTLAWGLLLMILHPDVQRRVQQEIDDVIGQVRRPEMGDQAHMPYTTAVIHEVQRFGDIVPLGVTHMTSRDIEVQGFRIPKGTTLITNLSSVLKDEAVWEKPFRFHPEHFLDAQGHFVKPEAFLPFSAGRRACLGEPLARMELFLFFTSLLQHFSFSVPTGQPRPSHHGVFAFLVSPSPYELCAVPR
The nature of data set [18]: Half life in rat at 1 mg/kg, iv. It counts as ADME, organism-based. Also noted: dose 1 mg/kg, route intravenous. To be noted: in vivo.
A short description of data set [19]: Oral bioavailability in rat at 1 mg/kg. Conditions: in vivo. The data set is classed as ADME, organism-based.
A further data set has as its target T2, Cytochrome P450 1A2 (Homo sapiens, UniProt P05177).
T2 sequence (P05177 whole entry): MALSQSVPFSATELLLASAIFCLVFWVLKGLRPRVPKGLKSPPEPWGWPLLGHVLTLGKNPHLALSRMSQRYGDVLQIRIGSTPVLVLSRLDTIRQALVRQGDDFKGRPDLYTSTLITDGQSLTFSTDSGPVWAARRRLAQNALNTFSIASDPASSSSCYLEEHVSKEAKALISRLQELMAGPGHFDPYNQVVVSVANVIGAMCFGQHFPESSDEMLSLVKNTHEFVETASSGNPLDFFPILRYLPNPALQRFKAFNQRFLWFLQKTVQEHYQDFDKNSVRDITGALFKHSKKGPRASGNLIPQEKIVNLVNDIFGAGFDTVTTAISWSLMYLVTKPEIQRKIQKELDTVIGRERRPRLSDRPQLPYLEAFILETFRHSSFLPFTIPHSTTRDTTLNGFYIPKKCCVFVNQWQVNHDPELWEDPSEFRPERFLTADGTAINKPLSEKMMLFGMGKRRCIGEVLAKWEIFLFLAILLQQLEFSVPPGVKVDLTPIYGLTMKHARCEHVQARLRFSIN
Nature of the data set: Inhibition of CYP1A2 (unknown origin). It counts as ADME.

The nature of data set [20]: Oral bioavailability in dog at 1 mg/kg. The data set is classed as ADME, organism-based, Canis lupus familiaris. Conditions: in vivo.
In a further data set the target is CYP3A4 (Homo sapiens, UniProt P08684). Nature of the data set: Inhibition of CYP3A4 (unknown origin) at 10 uM. The data set is classed as ADME.
Chain of CYP3A4 (P08684 whole entry): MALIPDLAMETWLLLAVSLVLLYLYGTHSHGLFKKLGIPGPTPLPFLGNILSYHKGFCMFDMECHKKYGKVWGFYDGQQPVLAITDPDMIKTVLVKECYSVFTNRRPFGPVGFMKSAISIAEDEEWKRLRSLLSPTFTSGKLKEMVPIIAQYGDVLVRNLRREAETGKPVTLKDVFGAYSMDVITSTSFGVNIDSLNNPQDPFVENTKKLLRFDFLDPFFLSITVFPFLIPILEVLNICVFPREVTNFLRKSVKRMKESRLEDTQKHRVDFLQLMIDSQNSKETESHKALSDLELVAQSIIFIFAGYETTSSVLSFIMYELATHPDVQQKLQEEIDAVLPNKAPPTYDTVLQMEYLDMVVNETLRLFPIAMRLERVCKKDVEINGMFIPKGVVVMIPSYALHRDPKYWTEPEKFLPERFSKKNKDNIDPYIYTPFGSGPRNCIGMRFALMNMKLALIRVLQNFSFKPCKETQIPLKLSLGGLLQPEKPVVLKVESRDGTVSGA
Data set [21] can be described thus: Ratio of drug uptake in brain to plasma in Sprague-Dawley rat at 10 mg/kg, po. The data set is classed as ADME, organism-based. Also on record: dose 10 mg/kg, route oral. Conditions: read-out: BPR.
The species named for data set [22] is Rattus norvegicus. Nature of the data set: animal or person. To be noted: po.
The target of a further data set is Cytochrome P450 2C9 (Homo sapiens, UniProt P11712). Nature of the data set: Inhibition of CYP2C9 (unknown origin). It counts as ADME.
Chain of Cytochrome P450 2C9 (P11712 whole entry): as the sequence (P11712 whole entry) above
Data set [23] in a line: AUC (0 to infinity) in rat at 1 mg/kg, po. Conditions: plasma. It counts as ADME, organism-based. Also noted: time infinity, dose 1 mg/kg, route oral.
A short description of data set [24]: Cmax in dog at 1 mg/kg, po. The data set is classed as ADME, organism-based, Canis lupus familiaris. Also on record: dose 1 mg/kg, route oral. To be noted: in vivo.
The nature of data set [25]: Metabolic stability in dog liver microsomes after 30 mins by LC-ESI/MS analysis. The data set is classed as ADME, Canis lupus familiaris, Microsome. To be noted: read-out: Stability.
For a further data set, the target named is CYP2D6 (Homo sapiens, UniProt P10635). Nature of the data set: Inhibition of CYP2D6 (unknown origin) at 10 uM. It counts as ADME.
Chain of CYP2D6 (P10635 whole entry): as the sequence (P10635 whole entry) above
The nature of data set [26]: Serum protein binding in human. It counts as ADME, cell-free. To be noted: read-out: PB (converted).
The next data set addresses Cytochrome P450 3A4 (Homo sapiens, UniProt P08684). The data set can be described thus: Inhibition of CYP3A4 (unknown origin). The data set is classed as ADME.
A short description of data set [27]: AUC (0 to infinity) in rat at 1 mg/kg, iv. The data set is classed as ADME, organism-based. To be noted: plasma. Also noted: time infinity, dose 1 mg/kg, route intravenous.
A short description of data set [28]: Half life in dog at 1 mg/kg, iv. It counts as ADME, organism-based, Canis lupus familiaris. Also noted: dose 1 mg/kg, route intravenous. Conditions: in vivo.
Data set [29] in a line: Cmax in rat at 1 mg/kg, po. Also on record: dose 1 mg/kg, route oral. The data set is classed as ADME, organism-based. To be noted: in vivo.
A short description of data set [30]: AUC (0 to infinity) in dog at 1 mg/kg, iv. The data set is classed as ADME, organism-based, Canis lupus familiaris. Also on record: dose 1 mg/kg, route intravenous, time infinity. To be noted: plasma.
A further data set deals with Plasma. The data set can be described thus: Drug uptake in Sprague-Dawley rat plasma at 10 mg/kg, po. The data set is classed as ADME, organism-based. Also on record: dose 10 mg/kg, route oral. Conditions: in vivo.

Chain of Sodium-dependent serotonin transporter (Rattus norvegicus, UniProt P31652) (P31652 whole entry): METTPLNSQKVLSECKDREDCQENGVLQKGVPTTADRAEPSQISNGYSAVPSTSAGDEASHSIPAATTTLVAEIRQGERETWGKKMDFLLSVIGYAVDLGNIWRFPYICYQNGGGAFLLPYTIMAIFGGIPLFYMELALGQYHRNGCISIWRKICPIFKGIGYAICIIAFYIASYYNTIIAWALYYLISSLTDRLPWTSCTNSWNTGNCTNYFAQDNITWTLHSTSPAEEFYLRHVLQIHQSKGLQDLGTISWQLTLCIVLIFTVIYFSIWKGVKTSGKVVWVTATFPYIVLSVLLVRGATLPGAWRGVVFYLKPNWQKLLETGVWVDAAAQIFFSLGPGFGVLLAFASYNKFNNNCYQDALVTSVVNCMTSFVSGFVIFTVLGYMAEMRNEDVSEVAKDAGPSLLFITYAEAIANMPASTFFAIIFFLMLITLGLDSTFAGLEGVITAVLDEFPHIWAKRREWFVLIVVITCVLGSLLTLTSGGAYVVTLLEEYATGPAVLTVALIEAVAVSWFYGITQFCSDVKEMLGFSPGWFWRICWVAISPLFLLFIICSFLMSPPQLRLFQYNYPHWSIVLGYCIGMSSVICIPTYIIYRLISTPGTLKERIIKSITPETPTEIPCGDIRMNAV
Chain of Cytochrome P450 3A4 (P08684 whole entry): as the sequence (P08684 whole entry) above

With `COc1ccc(O[C@@H](CC(C)C)[C@H]2CCNC2)c(C)n1` [listing 1 of 2 here], the inhibition entry in the data set on Rattus norvegicus [1] is “Dose-dependent effect”. Also, the inhibition result in data set [2] is “Active”. Besides, in the data set with Rattus norvegicus [3], the Activity entry was “Dose-dependent effect”.

Take `CCN(CC)C(=O)C1(c2ccccc2)CC1CN` (stereo not drawn): the Ki in data set [4] stood at 0.027 µM.

Take `COc1ccc(O[C@@H](CC(C)C)[C@H]2CCNC2)c(C)n1` (stereo in doubt; form 2): the Ki in [5] amounted to 0.00021 µM; in data set [6] it was 0.354 µM.

As for `COc1ccc(O[C@H](CC(C)C)[C@@H]2CCNC2)c(C)n1`, the Ki in data set [5] is 0.00075 µM; in data set [6], over 0.89 µM.

For `COc1ccc(O[C@@H](CC(C)C)[C@@H]2CCNC2)c(C)n1`, the inhibition constant Ki in data set [5] is 0.00084 µM; in [6], over 0.89 µM.

`COc1ccc(O[C@@H](CC(C)C)[C@H]2CCNC2)c(C)n1` [listing 2 of 2 here]: the ED80 stood at 10.6 mg/kg in the data set filed under Rattus norvegicus [7] and 6.8 mg/kg in the data set filed under Rattus norvegicus [22]. Moreover, the clearance was 0.492 L/h/kg in data set [8] and 7.2 L/h/kg in data set [9]. In addition, the Vd came out at 7.6 L/kg in [10] and 1.8 L/kg in data set [15]. Also, the remaining at 0.5 h in data set [11] was 92%; in data set [13], 28%; in data set [25], 57%. The AUC(0-inf) in data set [12] is 4130 nM·h; in [23], 251 nM·h; in data set [27], 600 nM·h; in data set [30], 8090 nM·h. In addition, the values for the concentration with Brain and in the data set on Plasma were 0.45 µM and 0.146 µM, respectively. Besides, the IC50 in data set [5] is 0.0019 µM; on Cytochrome P450 2D6, over 10 µM; against Cytochrome P450 1A2 it was over 10 µM; against Cytochrome P450 2C9, over 10 µM; at Cytochrome P450 3A4 it was over 10 µM. Moreover, the Tmax in [14] and in [16] was 1.3 h throughout. The compound further gave a Ki in data set [4] of 0.00016 µM. In addition, the inhibition at 10 µM at CYP2C9, against CYP3A4 and at CYP2D6 was under 30% each time. For the same compound, in the data set with Rattus norvegicus [17], the Activity entry is “Non-toxic”. Moreover, the half-life in data set [18] is 0.84 h; in [28], 4.6 h. For the same compound, the bioavailability is 31% in data set [19] and 47% in [20]. Besides, the Kp in data set [21] worked out at 3. Besides, the values for the Cmax in data set [24] and in data set [29] were 0.503 µM and 0.065 µM, respectively. The fraction unbound in data set [26] was 0.43.

For the compound `COc1ccc(O[C@H](CC(C)C)[C@H]2CCNC2)c(C)n1`, the inhibitory constant (Ki) in data set [6] is over 0.89 µM.

For the compound `COc1ccc(O[C@@H](CC(C)C)[C@H]2CCNC2)c(C)n1` (stereo in doubt; form 1), the values for the Ki in data set [5] and in data set [6] were 0.00022 µM and 0.475 µM, respectively.
